One data set has as its system SK-BR-3. Nature of the data set: Cytotoxicity against HER-positive human SK-BR-3 cells assessed as inhibition of cell growth incubated for 48 hrs by MTT assay. Conditions: SK-BR-3, 48 h. Format: functional, cell-based. A general note: Tetrazolium assays rely on reduction of a dye to a coloured formazan, in cell work by metabolically active cells.
In a further data set the test system is NCI-N87. Kind of data set: Cytotoxicity against HER-positive human NCI-N87 cells assessed as inhibition of cell growth incubated for 48 hrs by MTT assay. Format: functional, cell-based. Conditions: NCI-N87, 48 h.
The subject of the next data set is SK-OV-3. Nature of the data set: Cytotoxicity against HER-positive human SK-OV-3 cells assessed as inhibition of cell growth incubated for 48 hrs by MTT assay. Format: functional, cell-based. To be noted: SK-OV-3, 48 h.
For a further data set, the system named is MDA-MB-231. Nature of the data set: Cytotoxicity against HER-negative human MDA-MB-231 cells assessed as inhibition of cell growth incubated for 48 hrs by MTT assay. Format: functional, cell-based. To be noted: MDA-MB-231, 48 h.
Data set [1] is described as follows: Cytotoxicity against human MCF-10A cells assessed as inhibition of cell growth incubated for 48 hrs by MTT assay. Type of data set: toxicity, cell-based.
The target of data set [2] is T1, Receptor tyrosine-protein kinase erbB-2 (Homo sapiens, UniProt P04626). Nature of the data set: Binding affinity to HER2 in HER-positive human SK-BR-3 cells assessed as increase in fluorescence intensity at 25 uM by Hoechst 33342 staining based confocal microscopic analysis. Format: cell-based.
Data set [3] addresses T1, Receptor tyrosine-protein kinase erbB-2. Nature of the data set: Binding affinity to recombinant HER2 (unknown origin) assessed as dissociation constant by SPR analysis. For orientation: Surface plasmon resonance follows binding to a sensor surface in real time, without labels.

From ChEMBL document CHEMBL5096235, “In Silico Exploration and Biological Evaluation of Bispecific Peptides Derived from Anti-HER2 Antibodies and Peptide-Camptothecin Conjugates for HER2-Positive Breast Cancer” (J Med Chem, 2022) come the findings set out here.

pIC50, pKd: −log10 of the molar value. Activity calls are given as the source filed them. The rule behind the calls is not given here. Residues, ends and D or L forms follow the SMILES beside them. *: point of attachment. X1 = CC[C@@]1(OC(=O)CCCCCN2CC(=O)C(*)C2=O)C(=O)OCc2c1cc1n(c2=O)Cc2cc3ccccc3nc2-1; X2 = CC[C@@]1(OC(=O)CCS*)C(=O)OCc2c1cc1n(c2=O)Cc2cc3ccccc3nc2-1

T1 sequence (P04626 whole entry): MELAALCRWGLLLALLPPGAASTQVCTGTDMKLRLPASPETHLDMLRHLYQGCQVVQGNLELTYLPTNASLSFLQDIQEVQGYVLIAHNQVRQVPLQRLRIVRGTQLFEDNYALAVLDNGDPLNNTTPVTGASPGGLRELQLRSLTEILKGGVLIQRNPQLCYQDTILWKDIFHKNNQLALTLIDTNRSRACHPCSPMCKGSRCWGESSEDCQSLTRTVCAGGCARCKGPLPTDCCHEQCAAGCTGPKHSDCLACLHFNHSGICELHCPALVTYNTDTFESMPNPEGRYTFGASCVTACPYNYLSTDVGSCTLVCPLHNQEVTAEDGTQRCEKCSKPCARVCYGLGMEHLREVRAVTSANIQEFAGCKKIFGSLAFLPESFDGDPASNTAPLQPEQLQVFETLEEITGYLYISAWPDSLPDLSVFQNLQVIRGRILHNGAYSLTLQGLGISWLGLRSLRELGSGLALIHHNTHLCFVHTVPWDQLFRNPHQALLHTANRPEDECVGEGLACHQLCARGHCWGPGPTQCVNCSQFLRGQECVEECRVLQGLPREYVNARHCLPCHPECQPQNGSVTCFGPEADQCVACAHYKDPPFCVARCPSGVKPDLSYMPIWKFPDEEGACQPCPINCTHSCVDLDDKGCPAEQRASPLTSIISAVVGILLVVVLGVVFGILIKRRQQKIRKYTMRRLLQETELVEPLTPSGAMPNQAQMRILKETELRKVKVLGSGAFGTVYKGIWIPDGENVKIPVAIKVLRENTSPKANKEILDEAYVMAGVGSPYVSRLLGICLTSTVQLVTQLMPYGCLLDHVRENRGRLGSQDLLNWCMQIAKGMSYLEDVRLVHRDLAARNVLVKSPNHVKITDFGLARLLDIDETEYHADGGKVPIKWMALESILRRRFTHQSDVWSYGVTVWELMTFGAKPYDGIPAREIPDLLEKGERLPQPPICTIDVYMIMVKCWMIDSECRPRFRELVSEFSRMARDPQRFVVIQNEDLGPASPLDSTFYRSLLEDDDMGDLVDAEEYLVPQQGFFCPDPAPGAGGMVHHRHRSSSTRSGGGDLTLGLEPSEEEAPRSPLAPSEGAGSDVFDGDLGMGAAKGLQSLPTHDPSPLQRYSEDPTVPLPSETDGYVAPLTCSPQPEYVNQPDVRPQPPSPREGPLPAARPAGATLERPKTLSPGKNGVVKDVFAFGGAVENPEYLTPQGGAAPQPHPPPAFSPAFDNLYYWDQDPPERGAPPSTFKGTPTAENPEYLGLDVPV

For orientation: pIC50 means the negative decadic logarithm of the IC50, by convention in mol/L. By IC50 is commonly meant the midpoint of a concentration-inhibition curve. As for `CC[C@H](C)[C@H](NC(=O)[C@@H](N)CCCNC(=N)N)C(=O)N[C@@H](CCCCN)C(=O)N1CCC[C@H]1C(=O)N[C@@H](CCCNC(=N)N)C(=O)N[C@@H](CCCCN)C(=O)NCC(=O)N[C@@H](Cc1ccc(O)cc1)C(=O)N[C@H](C(=O)N[C@@H](CCCNC(=N)N)C(=O)NCC(=O)N[C@@H](CSSCCC(=O)O[C@]1(CC)C(=O)OCc2c1cc1n(c2=O)Cc2cc3ccccc3nc2-1)C(=O)NCC(=O)N[C@@H](CSSCCC(=O)O[C@]1(CC)C(=O)OCc2c1cc1n(c2=O)Cc2cc3ccccc3nc2-1)C(=O)NC(=O)C[C@H](NC(=O)CN)C(=O)N1CCC[C@H]1C(=O)N[C@@H](CC(N)=O)C(=O)N[C@@H](Cc1c[nH]c2ccccc12)C(=O)NCC(=O)N[C@@H](CCCNC(=N)N)C(=O)N[C@@H](CO)C(=O)N[C@@H](Cc1c[nH]c2ccccc12)C(=O)N[C@@H](Cc1ccc(O)cc1)C(=O)N[C@@H](CC(N)=O)C(=O)N[C@@H](CCC(N)=O)C(=O)N[C@@H](CCCNC(=N)N)C(=O)N[C@@H](Cc1ccccc1)C(=O)N[C@@H](CCCCN)C(N)=O)[C@@H](C)O`, the pIC50 in the data set on SK-BR-3 is 5.83; in the data set with NCI-N87 it was 5.13; in the data set on SK-OV-3 it was 5.39; in the data set on MDA-MB-231, 4.94. The IC50 at 48 h in data set [1] was 18.2 µM.

On to `CC[C@H](C)[C@H](NC(=O)[C@@H](N)CCCNC(=N)N)C(=O)N[C@@H](CCCCN)C(=O)N1CCC[C@H]1C(=O)N[C@@H](CCCNC(=N)N)C(=O)N[C@@H](CCCCN)C(=O)NCC(=O)N[C@@H](Cc1ccc(O)cc1)C(=O)N[C@H](C(=O)N[C@@H](CCCNC(=N)N)C(=O)NCC(=O)N[C@@H](CSC1C(=O)CN(CCCCCC(=O)O[C@]2(CC)C(=O)OCc3c2cc2n(c3=O)Cc3cc4ccccc4nc3-2)C1=O)C(=O)NCC(=O)N[C@@H](CSC1C(=O)CN(CCCCCC(=O)O[C@]2(CC)C(=O)OCc3c2cc2n(c3=O)Cc3cc4ccccc4nc3-2)C1=O)C(=O)NC(=O)C[C@H](NC(=O)CN)C(=O)N1CCC[C@H]1C(=O)N[C@@H](CC(N)=O)C(=O)N[C@@H](Cc1c[nH]c2ccccc12)C(=O)NCC(=O)N[C@@H](CCCNC(=N)N)C(=O)N[C@@H](CO)C(=O)N[C@@H](Cc1c[nH]c2ccccc12)C(=O)N[C@@H](Cc1ccc(O)cc1)C(=O)N[C@@H](CC(N)=O)C(=O)N[C@@H](CCC(N)=O)C(=O)N[C@@H](CCCNC(=N)N)C(=O)N[C@@H](Cc1ccccc1)C(=O)N[C@@H](CCCCN)C(N)=O)[C@@H](C)O` (some centres not stated), for which the negative-log IC50 (pIC50) in the data set with SK-BR-3 was 5.17; with NCI-N87 it was 4.96; in the data set on SK-OV-3, 4.69; in the data set on MDA-MB-231, 4.55. Besides, the concentration for half-maximal inhibition (IC50) at 48 h in data set [1] was determined as 25.2 µM.

For `CC[C@H](C)[C@H](NC(=O)[C@H](CCCNC(=N)N)NC(=O)CNC(=O)[C@H](CS)NC(=O)CNC(=O)[C@H](CCCCN)NC(=O)[C@H](Cc1ccccc1)NC(=O)[C@H](CCCNC(=N)N)NC(=O)[C@H](CCC(N)=O)NC(=O)[C@H](CC(N)=O)NC(=O)[C@H](Cc1ccc(O)cc1)NC(=O)[C@H](Cc1c[nH]c2ccccc12)NC(=O)[C@H](CO)NC(=O)[C@H](CCCNC(=N)N)NC(=O)CNC(=O)[C@H](Cc1c[nH]c2ccccc12)NC(=O)[C@H](CC(N)=O)NC(=O)[C@@H]1CCCN1C(=O)[C@H](N)CC(=O)NC(=S)Nc1ccc2c(c1)C(=O)OC21c2ccc(O)cc2Oc2cc(O)ccc21)C(=O)N[C@@H](CCCCN)C(=O)N1CCC[C@@H]1C(=O)N[C@H](CCCNC(=N)N)C(=O)N[C@H](CCCCN)C(=O)NCC(=O)N[C@H](Cc1ccc(O)cc1)C(=O)N[C@@H](C(=O)N[C@H](CCCNC(=N)N)C(N)=O)[C@H](C)O`, the result in data set [2] was Active.

As a reminder, the pKd is the Kd on a negative log10 scale, so that one unit is a factor of ten. Consider `N=C(N)NCCC[C@H](NC(=O)CNC(=O)[C@H](Cc1c[nH]c2ccccc12)NC(=O)[C@H](CC(N)=O)NC(=O)[C@@H]1CCCN1C(=O)[C@@H](N)CC(N)=O)C(=O)N[C@@H](CO)C(=O)N[C@@H](Cc1c[nH]c2ccccc12)C(=O)N[C@@H](Cc1ccc(O)cc1)C(=O)N[C@@H](CC(N)=O)C(=O)N[C@@H](CCC(N)=O)C(=O)N[C@@H](CCCNC(=N)N)C(=O)N[C@@H](Cc1ccccc1)C(=O)N[C@@H](CCCCN)C(=O)O` (H-NPNWGRSWYNQRFK-OH), for which, in data set [3], the negative logarithm of the Kd (pKd) was 5.24.

As for `N=C(N)NCCC[C@H](NC(=O)[C@H](CCC(N)=O)NC(=O)[C@H](CC(N)=O)NC(=O)[C@H](Cc1ccc(O)cc1)NC(=O)[C@H](CCCNC(=N)N)NC(=O)[C@H](CO)NC(=O)[C@H](Cc1c[nH]c2ccccc12)NC(=O)CNC(=O)[C@H](Cc1c[nH]c2ccccc12)NC(=O)[C@H](CC(N)=O)NC(=O)[C@@H]1CCCN1C(=O)[C@@H](N)CC(N)=O)C(=O)N[C@@H](Cc1ccccc1)C(=O)N[C@@H](CCCCN)C(=O)O` (H-NPNWGWSRYNQRFK-OH), in data set [3], the negative-log Kd (pKd) is 5.00.

In the case of `N=C(N)NCCC[C@H](NC(=O)[C@H](CCC(N)=O)NC(=O)[C@H](CC(N)=O)NC(=O)[C@H](Cc1ccc(O)cc1)NC(=O)[C@H](Cc1c[nH]c2ccccc12)NC(=O)[C@H](CO)NC(=O)[C@H](Cc1c[nH]c2ccccc12)NC(=O)CNC(=O)[C@H](Cc1c[nH]c2ccccc12)NC(=O)[C@H](CC(N)=O)NC(=O)[C@@H]1CCCN1C(=O)[C@@H](N)CC(N)=O)C(=O)N[C@@H](Cc1ccccc1)C(=O)N[C@@H](CCCCN)C(=O)O` (H-NPNWGWSWYNQRFK-OH), the negative-log Kd (pKd) in data set [3] was 5.05.

For the compound `N=C(N)NCCC[C@H](NC(=O)[C@H](CCC(N)=O)NC(=O)[C@H](CC(N)=O)NC(=O)[C@H](Cc1ccc(O)cc1)NC(=O)[C@H](Cc1c[nH]c2ccccc12)NC(=O)[C@H](CO)NC(=O)[C@H](Cc1ccc(O)cc1)NC(=O)CNC(=O)[C@H](Cc1c[nH]c2ccccc12)NC(=O)[C@H](CC(N)=O)NC(=O)[C@@H]1CCCN1C(=O)[C@@H](N)CC(N)=O)C(=O)N[C@@H](Cc1ccccc1)C(=O)N[C@H](C=O)CCCCN` (H-NPNWGYSWYNQRFK-aldehyde), in data set [3], the pKd is 4.84.

Regarding `N=C(N)NCCC[C@H](NC(=O)CNC(=O)[C@H](Cc1c[nH]c2ccccc12)NC(=O)[C@@H]1CCCN1C(=O)[C@@H]1CCCN1C(=O)[C@@H](N)CC(N)=O)C(=O)N[C@@H](CO)C(=O)N[C@@H](CCCNC(=N)N)C(=O)N[C@@H](Cc1ccc(O)cc1)C(=O)N[C@@H](CC(N)=O)C(=O)N[C@@H](CCC(N)=O)C(=O)N[C@@H](CCCNC(=N)N)C(=O)N[C@@H](Cc1ccccc1)C(=O)N[C@@H](CCCCN)C(=O)O` (H-NPPWGRSRYNQRFK-OH), in data set [3], the pKd is 4.91.

As to `CC[C@H](C)[C@H](NC(=O)[C@@H](N)CCCNC(=N)N)C(=O)N[C@@H](CCCCN)C(=O)N1CCC[C@H]1C(=O)N[C@@H](CCCNC(=N)N)C(=O)N[C@@H](CCCCN)C(=O)NCC(=O)N[C@@H](Cc1ccc(O)cc1)C(=O)N[C@H](C(=O)N[C@@H](CCCNC(=N)N)C(=O)O)[C@@H](C)O` (H-RIKPRKGYTR-OH), in data set [3], the pKd is 5.12.

On to `CC[C@H](C)[C@H](NC(=O)[C@@H](N)CCCNC(=N)N)C(=O)N[C@@H](CCCCN)C(=O)N1CCC[C@H]1C(=O)N[C@@H](CCCNC(=N)N)C(=O)N[C@@H](CCCCN)C(=O)NCC(=O)N[C@@H](Cc1ccc(O)cc1)C(=O)N[C@H](C(=O)N[C@@H](CCCNC(=N)N)C(=O)NCC(=O)N[C@@H](CSC1C(=O)CN(CCCCCC(=O)O[C@]2(CC)C(=O)OCc3c2cc2n(c3=O)Cc3cc4ccccc4nc3-2)C1=O)C(=O)NCC(=O)N[C@@H](CC(N)=O)C(=O)N1CCC[C@H]1C(=O)N[C@@H](CC(N)=O)C(=O)N[C@@H](Cc1c[nH]c2ccccc12)C(=O)NCC(=O)N[C@@H](CCCNC(=N)N)C(=O)N[C@@H](CO)C(=O)N[C@@H](Cc1c[nH]c2ccccc12)C(=O)N[C@@H](Cc1ccc(O)cc1)C(=O)N[C@@H](CC(N)=O)C(=O)N[C@@H](CCC(N)=O)C(=O)N[C@@H](CCCNC(=N)N)C(=O)N[C@@H](Cc1ccccc1)C(=O)N[C@@H](CCCCN)C(N)=O)[C@@H](C)O` (some centres not stated) (H-RIKPRKGYTRGC(X1)GNPNWGRSWYNQRFK-NH2), for which the pIC50 in the data set with SK-BR-3 was 4.59; in the data set with NCI-N87, 4.81; with SK-OV-3, 4.61; in the data set with MDA-MB-231, 4.64. For the same compound, the IC50 at 48 h in data set [1] was 35.2 µM.

`CC[C@H](C)[C@H](NC(=O)[C@@H](N)CCCNC(=N)N)C(=O)N[C@@H](CCCCN)C(=O)N1CCC[C@H]1C(=O)N[C@@H](CCCNC(=N)N)C(=O)N[C@@H](CCCCN)C(=O)NCC(=O)N[C@@H](Cc1ccc(O)cc1)C(=O)N[C@H](C(=O)N[C@@H](CCCNC(=N)N)C(=O)NCC(=O)N[C@@H](CSSCCC(=O)O[C@]1(CC)C(=O)OCc2c1cc1n(c2=O)Cc2cc3ccccc3nc2-1)C(=O)NCC(=O)N[C@@H](CC(N)=O)C(=O)N1CCC[C@H]1C(=O)N[C@@H](CC(N)=O)C(=O)N[C@@H](Cc1c[nH]c2ccccc12)C(=O)NCC(=O)N[C@@H](CCCNC(=N)N)C(=O)N[C@@H](CO)C(=O)N[C@@H](Cc1c[nH]c2ccccc12)C(=O)N[C@@H](Cc1ccc(O)cc1)C(=O)N[C@@H](CC(N)=O)C(=O)N[C@@H](CCC(N)=O)C(=O)N[C@@H](CCCNC(=N)N)C(=O)N[C@@H](Cc1ccccc1)C(=O)N[C@@H](CCCCN)C(N)=O)[C@@H](C)O` (H-RIKPRKGYTRGC(X2)GNPNWGRSWYNQRFK-NH2): the pIC50 in the data set with SK-BR-3 was 5.19; in the data set with NCI-N87, 5.24; with SK-OV-3, 5.20; with MDA-MB-231 it was 4.96. In addition, the IC50 at 48 h in data set [1] was found to be 20.4 µM.
